Tests used:
V79 cells = assay: Growth of control and MNNG-treated V79 cells incubated with MPA; format: cell-based, Chinese hamster; conditions: untreated 5.0±0.3
parental V79 cells = assay: Resistance of parental cells to MPA cytotoxicity; format: cell-based, Chinese hamster
[1] = tested on: VM1 through VM4 variants of V79 cells; assay: Resistance of stepwise-selected cell variants to MPA cytotoxicity; format: cell-based, Chinese hamster
Description: According to the present invention, the resistance level of one of these cell variants was further increased by a stepwise selection in the presence of increasing concentrations of MPA. After adaptation to the higher concentration of MPA, the cells were seeded in medium containing an increased concentration of MPA at 200 cells per 60-mm petri dish, and MPA-resistant colonies were isolated 8 days later.

[2] = tested on: IMP1 cell clone (transfected V15 hamster cells); conditions: mycophenolic acid 2 μg/mL in culture medium
Description: After introduction of the construct into the hamster cells, mycophenolic acid (2 μg/mL) was added to the culture medium to select for those cells that had integrated the construct into their genetic material. Those cells that have integrated the construct into their genetic material produce the IMPDH enzyme and are therefore resistant to the cytotoxic effects of mycophenolic acid.
[Dulbecco's modified MEM containing 5% fetal bovine serum, aminopterin (2 μg/mL), and mycophenolic acid (25 μg/mL), and supplemented with hypoxanthine (15 μg/mL), thymidine (10 μg/mL), and xanthine (250 μg/mL)]. The ability of the cells to grow in the selective medium is attributable to the production of the E. coli gpt enzyme, which catalyzes the production of xanthine monophosphate from the reaction of xanthine and phosphoribosyl pyroposphate. Presence of the enzyme compensates for the purine de novo synthetic block imposed by the presence of aminopterin and MPA.

E. coli IMPDH enzyme = E. coli IMPDH enzyme (Escherichia coli, UniProt P0ADG7); conditions: unlike mammalian cell enzymes; cited from earlier work
E. coli IMPDH enzyme, sequence (P0ADG7 whole entry): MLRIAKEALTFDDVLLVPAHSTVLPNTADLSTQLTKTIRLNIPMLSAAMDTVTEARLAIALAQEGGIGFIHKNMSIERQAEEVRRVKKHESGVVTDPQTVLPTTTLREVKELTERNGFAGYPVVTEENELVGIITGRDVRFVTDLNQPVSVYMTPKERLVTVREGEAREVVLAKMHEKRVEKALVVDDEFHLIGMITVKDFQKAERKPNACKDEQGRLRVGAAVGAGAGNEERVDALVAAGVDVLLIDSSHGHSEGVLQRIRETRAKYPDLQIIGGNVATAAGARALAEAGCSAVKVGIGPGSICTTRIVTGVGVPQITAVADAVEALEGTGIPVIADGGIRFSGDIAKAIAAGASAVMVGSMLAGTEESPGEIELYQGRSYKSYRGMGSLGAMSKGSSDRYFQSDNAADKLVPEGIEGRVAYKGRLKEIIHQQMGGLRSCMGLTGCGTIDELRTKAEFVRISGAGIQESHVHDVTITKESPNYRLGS

[3] = biological target: purified Chinese hamster IMPDH (Cricetulus griseus, UniProt P12269); assay: Kinetic studies of purified IMPDH (IMP-dependent NAD reduction, absorbance at 340 nm)
purified Chinese hamster IMPDH, sequence (P12269 whole entry): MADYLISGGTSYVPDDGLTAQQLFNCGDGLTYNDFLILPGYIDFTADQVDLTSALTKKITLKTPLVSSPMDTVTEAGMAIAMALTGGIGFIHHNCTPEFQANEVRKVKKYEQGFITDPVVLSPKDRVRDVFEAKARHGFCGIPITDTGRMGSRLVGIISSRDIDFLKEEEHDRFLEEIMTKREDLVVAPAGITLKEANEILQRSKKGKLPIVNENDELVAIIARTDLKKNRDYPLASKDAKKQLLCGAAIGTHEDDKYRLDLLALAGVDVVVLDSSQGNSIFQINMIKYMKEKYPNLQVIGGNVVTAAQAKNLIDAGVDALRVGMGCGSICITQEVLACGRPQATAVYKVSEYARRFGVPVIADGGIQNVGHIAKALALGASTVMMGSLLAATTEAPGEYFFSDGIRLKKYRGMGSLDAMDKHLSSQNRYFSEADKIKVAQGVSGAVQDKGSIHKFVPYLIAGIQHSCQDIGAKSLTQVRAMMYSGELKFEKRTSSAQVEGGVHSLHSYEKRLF
Description: Kinetic studies were carried out by varying the substrate conditions. In all cases, linear reciprocal plots were defined by simple regression analysis of the data.

Compound	cells per Petri dish after 5 days of growth, mean (±SD) (V79 cells; MPA at 0.1 μg/mL)	cells per Petri dish after 5 days of growth, mean (±SD) (V79 cells; MPA at 0.3 μg/mL)	MPA concentration to which cells are resistant (parental V79 cells)	MPA concentration to which cells are resistant ([1]; VM1 variant)	MPA concentration to which cells are resistant ([1]; VM2 variant)	MPA concentration to which cells are resistant ([1]; VM3 variant)	MPA concentration to which cells are resistant ([1]; VM4 variant)	resistance of cell clone to cytotoxic effects [2]	sensitivity to the inhibitory effect (E. coli IMPDH enzyme)	Ki ([3]; sensitivity of Chinese hamster enzyme to MPA)	Km ([3]; substrate of Chinese hamster enzyme, linear reciprocal plots)
COc1c(C)c2c(c(O)c1C/C=C(\C)CCC(=O)O)C(=O)OC2 [MPA, mycophenolic acid]	1.4±0.2 ×10^6 cells per Petri dish	0.2±0.05 ×10^6 cells per Petri dish	0.1 µg/mL	5 µg/mL	10 µg/mL	25 µg/mL	50 µg/mL	resistant	insensitive	nanomolar range	–
NC(=O)c1ccc[n+]([C@@H]2O[C@H](COP(=O)([O-])OP(=O)(O)OC[C@H]3O[C@@H](n4cnc5c(N)ncnc54)[C@H](O)[C@@H]3O)[C@@H](O)[C@H]2O)c1 [NAD]	–	–	–	–	–	–	–	–	–	–	29 µM

Source: patent US6479628B1, “Methods and materials relating to IMPDH and GMP production” (Arch Development Corporation, priority 1988, dated 2002)
